The text below walks through data of US20250099485A1, “COMPOSITIONS FOR PROMOTING HAIR GROWTH” (ESTETRA SRL, priority 2021, published 2025).

Molecules are shown by their SMILES.

Series [1] concerns human epidermal keratinocytes. Kind of series: Wound healing gene expression RT-qPCR array, keratinocytes. The settings on record: 10^−7M, 15 h, relative to ethanol control. Type of series: cell-based. The source says: The healing properties of E4 were investigated at the transcriptional level by studying gene expression changes by RT-qPCR. 84 genes qPCR arrays focusing on the wound healing process were used. These arrays contain genes important for the three phases of wound healing process, including extra-cellular matrix (ECM) remodeling factors, inflammatory cytokines and chemokines as well as growth factors and major signaling molecules. The changes in gene expression were interpreted in a dermo cosmetic context in order to highlight the potential benefits of the E4 towards wound healing.
After 24 h seeded on 25 cm^2 culture flasks (T25), cells were treated with E4 during 15 h. […]
The RNA concentration was determined by spectrophotometric measurement (QIAxpert, Qiagen) and the RNA quality was analyzed by capillarity electrophoresis (Agilent Bioanalyzer 2100—Agilent RNA 6000 Nano Kit). […]
The qPCR method was used to quantify the expression changes of specific markers in the cDNA populations. […]
The amplification of target genes was performed following the supplier's recommendations thanks to a “HotStart Taq DNA Polymerase” and to the use of SYBR Green as detection method. The SYBR Green is a marker emitting fluorescence once inserted between the paired bases of nucleic acids. The fluorescence intensity is thus directly proportional to the quantity of produced amplicons. […]

The test system of series [2] is versican in dermal papilla (DP). Kind of series: Hair follicle organ culture: versican expression, DP inductivity. The settings on record: all tested concentrations, vs vehicle. Type of series: cell-based, human. As to the method:
(§1) 12-44 full-length frontotemporal hair follicles (HF) were obtained from four human female donors >50 years old. Donors were caucasian female subjects […], respectively (Donor 1: 12 temporal anagen HFs; Donor 2: 29; Donor 3: 44; Donor 4: 32). After microdissection from skin as described (Edelkamp et al., Methods Mol Biol, 2020, 2154:105-119; and Langan et al., Exp Dermatol, 2015, December; 24(12):903-1), HFs were placed in adequate culture medium and allowed a 24 h rest period to allow them to recover from the trauma of microdissection. Test substance (either vehicle (0.3% EtOH) or E4 at concentrations of 30 μM, 3 μM or 300 nM) was added to the medium at the end of the 24 h. Total culturing time was 5-7 days depending on the studied parameters and the experimental question. The experimental design for the hair follicle organ culture experiment is depicted in FIG. 12. Longer term culture experiments may be used to analyze the capacity to delay the onset of catagen.
Versican, a large chondroitin sulfate proteoglycan molecule, is expressed in DP in anagen HFs and diminishes in catagen HFs and its expression correlates with hair inductive properties (Yang, J Dermatol Sci 2010). Versican intensity was analyzed in the DP.

The conditions of series [3]: female, Lister Hooded, rat, in vivo, po, 15 mg/kg, 0.5 h.
Protocol: Tissue distribution was determined in female rats (partially pigmented and non-pigmented) using [^14C]-estetrol.
A group of six female Lister Hooded rats each received a single oral dose of [^14C]-estetrol. At each selected time (see below) one animal was killed (by overdose of CO2) followed by immediate snap freezing in hexane/solid CO2. The carcasses were retained for examination of the tissue distribution of radioactivity using the technique of quantitative whole body autoradiography (QWBA).
Times for analysis were: (0.5, 8, and 24 hours, 7, 14 and 35 days).
Frozen carcasses were subjected to whole-body autoradiography.
Where concentrations are reported, radioactivity was assumed to be associated with [^14C]-estetrol or any metabolic products derived from [^14C]-estetrol. The specific activities of the dosed test compounds were used for the calculation of concentrations in all cases. Recoveries of radioactivity are reported as percentage of administered radioactivity (% dose). Radioactivity concentrations are also reported as μg equivalents/g.
Series [4] has as its system human hair follicles (HF). In words: Hair follicle organ culture: microscopic hair cycle staging. The series is classed as cell-based. As to conditions: vs vehicle. How it is done: as §1
Hair cycle staging and calculation of hair cycle score is indicative of hair cycle progression and anagen-catagen transition (Langan et al., Exp Dermatol, 2015). Hair cycle staging and hair cycle score was performed at the end of the culture. The hair cycle stage of each HF was determined according to several established macroscopic and microscopic parameters (Langan et al Exp Dermatol, 2015). For macroscopic hair cycle stage, bright field images of the living HFs were taken with a digital microscope (Keyence VHX 900). Microscopic hair cycle staging was determined using Ki 67/TUNEL immunohistology and Masson Fontana histochemistry. Hair cycle staging was analyzed by calculating the percentage of HFs in each hair cycle stage. Hair cycle score was determined by giving an arbitrary score to each hair cycle stage as following: anagen: 100, early catagen: 200, mid catagen: 300, late catagen: 400, dystrophic 500, with a higher score being indicative of a higher number of HFs in catagen.

The test system of series [5] is alkaline phosphatase in dermal papilla (DP). In words: Hair follicle organ culture: alkaline phosphatase activity, DP inductivity. The series is classed as cell-based, human. The settings on record: all tested concentrations, vs vehicle. As to the method:
as §1
Alkaline phosphatase is an indicator of DP inductivity (Yang, J Dermatol Sci, 2010, January; 57(1):2-11). Alkaline phosphatase in situ activity was measured in the DP.

Series [6] relates to K15 positive cells. In words: Hair follicle organ culture: K15 expression, stem cells. The series is classed as cell-based, human. As to conditions: vs vehicle. How it is done: as §1
K15 is a type I cytokeratin expressed in HF bulge stem cells and their progeny (Purba et al., BioEssays, 2014). It is expressed in the bulge, infra-bulge and suprabulbar ORS. Bulge stem cells are identified using K15 expression, cellular morphology and anatomical localization (below the sebaceous glands, at the area where the arrector pili muscle attaches to the HF). K15 expression was analyzed in the bulge basal layer and in the suprabulbar ORS, and proliferation of K15 positive cells was evaluated in combination with Ki67 immunofluorescence staining.

The subject of series [7] is CD34 positive cells in the suprabulbar ORS. In words: Hair follicle organ culture: CD34 expression, stem cell progeny. The series is classed as cell-based, human. The settings on record: vs vehicle. How it is done: as §1
CD34 is a marker expressed by the progeny of HF bulge stem cells. It is expressed in the most external layer of the outer root sheet (ORS) below the isthmus (sub-bulge to suprabulbar regions) (Purba et al., BioEssays, 2014, May; 36(5):513-25). CD34 expression and percentage of CD34^+ cells were analyzed in the suprabulbar ORS.

Turning to `C[C@]12CC[C@@H]3c4ccc(O)cc4CC[C@H]3[C@@H]1[C@@H](O)[C@@H](O)[C@@H]2O` [E4, 1,3,5 (10)-estratrien-3,15alpha,16alpha,17beta-tetrol], in series [1], the “MMP2 (Matrix metalloproteinase-2) expression, FC” value was 1.1434 Fold Change (FC). Besides, in series [1], the “TIMP1 (Metalloproteinase inhibitor 1) expression, FC” value is 0.8949 Fold Change (FC). Moreover, the “versican expression in DP cells” value in series [2] is reported as “tendentially increased”. For the same compound, in series [3], the “Total amount of radioactivity in tissue, Skin (non-pigmented)” value is 1.1 % dose administered/tissue. Also, the “Total amount of radioactivity in tissue, Skin (pigmented)” value in series [3] is 1.7 % dose administered/tissue. Besides, the “prolonged anagen (microscopic hair cycle staging)” value is listed as “tendentially” in series [4] (300 nM), “significantly” in series [4] (3 μM) and “tendentially” in series [4] (30 μM). Also, the “alkaline phosphatase activity in DP cells” value in series [5] was “tendentially increased”. For the same compound, the “percentage of K15 positive cells in the suprabulbar ORS” value in series [6] (300 nM, 3 μM, 30 μM) is on record as “did not have any effect”. Moreover, the “decreased proliferation of K15 positive cells in the suprabulbar ORS (Ki-67)” value in series [6] (300 nM) is “significantly”; in series [6] (3 μM) it was “tendentially”. Besides, the results for the “increased proliferation of K15 positive cells in the bulge basal layer (Ki-67)” value in series [6] (300 nM), in series [6] (3 μM) and in series [6] (30 μM) were “tendentially”, “tendentially” and “significantly”, respectively. Besides, the “percentage of K15 positive cells in the bulge basal layer” value in series [6] (3 μM) was “significantly decreased”. Moreover, the “increased percentage of CD34 positive cells in the suprabulbar ORS” value in series [7] (300 nM) is recorded as “tendentially”; in series [7] (3 μM), “significantly”; in series [7] (30 μM), “tendentially”.
